According to US12692241B2, “Substituted triazine compound” (Nico Therapeutics, Inc., priority 2021, dated 2026):
Counter-ions that a name gives are not always drawn.

Each molecule was assayed on IL-1β production in THP-1 cells (LPS and ATP; NLRP3 inflammasome activation) (assay: THP-1 IL-1β production inhibitory test). Details: Homo sapiens, THP-1, 2 h, PMA-differentiated THP-1 cells, LPS 50 ng/mL and ATP 5 mM, 2 hours, ELISA; read-out: IC50 (nM), IL-1β production.
Type: cell-based, human
Experimental: THP-1 IL-1β Production Inhibitory Test
To THP-1 cells, 50 ng/mL PMA (phorbol myristate acetate, SIGMA, P1585) was added at 37° C. and then the cells were cultured for 2 days. […] The cells were cultured at 37° C. for 15 minutes. LPS (lipopolysaccharide, SIMGA, L2880) and ATP (adenosine triphosphate, SIGMA, A2383) were added such that the final concentrations of them became 50 ng/mL and 5 mM, respectively. The cells were cultured at 37° C. for 2 hours. The supernatant was collected and the concentration of IL-1β was measured by ELISA (DuoSet ELISA human IL-1β, R&D Systems, DY201). The concentration of IL-1β was plotted against the logarithm of the concentration of the test compound, and the IC50 value was calculated by sigmoidal Emax model nonlinear regression analysis.

| IC50 | Structure (SMILES) |
| --- | --- |
| 19 nM | Cc1nc(N[C@@H]2C[C@H]3C[C@@H]2[C@@H](O)C3)nnc1-c1ccc(C(F)(F)F)cc1O [Example 39] |
| 81 nM | Cc1nc(NCC2CCCCO2)nnc1-c1ccc(C(F)(F)F)cc1O (centres unmarked) [Example 96] |
| 38 nM | Cc1nc(N[C@@H]2CCCC[C@H]2O)nnc1-c1cc(F)c(C(F)(F)F)cc1O [Example 169] |
| 43 nM | C[C@]1(O)C[C@@H](Nc2nnc(-c3ccc(Cl)cc3O)c(C3CC3)n2)C1 [Example 121] |
| 15 nM | C[C@@]1(O)CCCC[C@H]1Nc1nnc(-c2ccc(C(F)(F)F)cc2O)c(C2CC2)n1 [Example 122] |
| 11 nM | Cc1ccc(-c2nnc(N[C@@H]3CCCC[C@H]3O)nc2C)c(O)c1 [Example 37] |
| 32 nM | Cc1nc(N[C@@H]2CCC[C@H](O)C2)nnc1-c1ccc(C2CC2)cc1O [Example 83] |
| 7.3 nM | Cc1nc(N[C@@H]2CCCC[C@@]2(C)O)nnc1-c1ccc(Cl)cc1O [Example 54] |
| 42 nM | Cc1ccc(-c2nnc(N[C@H]3C[C@@](C)(O)C3)nc2C2CC2)c(O)c1 [Example 119] |
| 30 nM | Cc1nc(N[C@@H]2CCC(F)(F)C[C@H]2O)nnc1-c1ccc(C(F)(F)F)cc1O [Example 69] |
| 290 nM | Cc1nc(N[C@@H]2COCC[C@H]2O)nnc1-c1ccc(C(F)(F)F)cc1O [Example 21] |
| 14 nM | Cc1nc(N[C@H]2C[C@@](C)(O)C2)nnc1-c1ccc(Cl)cc1O [Example 49] |
| 23 nM | Cc1nc(N[C@@H]2CCC[C@@H](O)C2)nnc1-c1ccc(C(F)(F)F)cc1O [Example 166] |
| 23 nM | CC(=O)N[C@H]1C[C@H](CNc2nnc(-c3ccc(C(F)(F)F)cc3O)c(C)n2)C1 [Example 156] |
| 34 nM | Cc1nc(N[C@@H]2CCCC(F)(F)[C@H]2O)nnc1-c1ccc(C(F)(F)F)cc1O [Example 48] |
| 20 nM | O=C1NCC[C@@H]1Nc1nnc(-c2ccc(OC(F)(F)F)cc2O)c(C2CC2)n1 [Example 126] |
| 53 nM | Cc1nc(NC2CCS(=O)(=O)CC2)nnc1-c1ccc(C(F)(F)F)cc1O [Example 12] |
| 6.7 nM | Cc1cc(C(F)(F)F)cc(O)c1-c1nnc(N[C@@H]2CCCC[C@H]2O)nc1C [Example 165] |
| 370 nM | CC(=O)N1CCO[C@@H](CNc2nnc(-c3ccc(C(F)(F)F)cc3O)c(C)n2)C1 [Example 155] |
| 22 nM | CC(=O)N[C@@H]1CCCC[C@H]1Nc1nnc(-c2ccc(C(F)(F)F)cc2O)c(C)n1 [Example 152, N-[(1R,2R)-2-({6-[2-hydroxy-4-(trifluoromethyl)phenyl]-5-methyl-1,2,4-triazin-3-yl}amino)cyclohexyl]acetamide] |
| 42 nM | Cc1ccc(-c2nnc(N[C@@H]3CCC[C@H](O)C3)nc2C)c(O)c1 [Example 81] |
| 39 nM | Cc1nc(N[C@@H]2CCCC[C@H]2N)nnc1-c1ccc(OC(F)(F)F)cc1O [Example 145] |
| 620 nM | Cc1nc(N[C@H]2CCN(C)C2=O)nnc1-c1ccc(C(F)(F)F)cc1O [Example 74] |
| 150 nM | Cc1nc(Nc2ccn(C)n2)nnc1-c1ccc(C(F)(F)F)cc1O [Example 97] |
| 25 nM | Cc1nc(Nc2ccn(C[C@@H](C)O)n2)nnc1-c1ccc(C(F)(F)F)cc1O [Example 107] |
| 35 nM | Cc1nc(N[C@@H]2CCCN(C3CNC3)C2)nnc1-c1ccc(C(F)(F)F)cc1O [Example 172] |

Second part, the molecule before the results:

| Structure (SMILES) | IC50 |
| --- | --- |
| COc1ccc(-c2nnc(N[C@@H]3CCOC[C@H]3O)nc2C)c(O)c1 [Example 61] | 36 nM |
| Cc1nc(N[C@H]2CC[C@H](O)CC2)nnc1-c1ccc(C(F)(F)F)cc1O [Example 26] | 62 nM |
| Cc1nc(N[C@@H]2CCC[C@H](O)C2)nnc1-c1ccc(C(F)F)cc1O [Example 175] | 24 nM |
| Cc1nc(N[C@@H]2CCNC2)nnc1-c1ccc(C(F)(F)F)cc1O [Example 133] | 95 nM |
| Cc1nc(NC[C@@H]2CCCNC2)nnc1-c1ccc(C(F)(F)F)cc1O [Example 135] | 450 nM |
| Cc1nc(NCC(F)F)nnc1-c1ccc(C(F)(F)F)cc1O [Example 87] | 130 nM |
| Cc1nc(N[C@@H]2CCOC[C@H]2O)nnc1-c1ccc(OC(F)(F)F)cc1O [Example 32] | 10 nM |
| CC(C)c1nc(N[C@@H]2CCCC[C@H]2O)nnc1-c1ccc(C(F)(F)F)cc1O [Example 128] | 7.9 nM |
| Cc1nc(N[C@H]2CCCC[C@H]2O)nnc1-c1ccc(C(F)(F)F)cc1O [Example 20] | 34 nM |
| CC(=O)NC[C@H]1C[C@H](Nc2nnc(-c3ccc(C(F)(F)F)cc3O)c(C)n2)C1 [Example 106] | 26 nM |
| Cc1nc(NC2CNCCC23CC3)nnc1-c1ccc(C(F)(F)F)cc1O (centres unmarked) [Example 170] | 390 nM |
| CC(=O)N1CCC[C@@H](Nc2nnc(-c3ccc(C(F)(F)F)cc3O)c(C)n2)C1 [Example 154] | 31 nM |
| Cc1nc(N[C@H]2CCNC2=O)nnc1-c1ccc(C(F)(F)F)cc1O [Example 44] | 7 nM |
| Cc1nc(N[C@H]2CCCC[C@@H]2O)nnc1-c1ccc(C(F)(F)F)cc1O [Example 41] | 310 nM |
| Cc1nc(N[C@@H]2CCC[C@H](O)C2)nnc1-c1ccc(OC(F)(F)F)cc1O [Example 84] | 38 nM |
| Cc1nc(N[C@@H]2CCCC[C@@H]2O)nnc1-c1ccc(C(F)(F)F)cc1O [Example 40] | 22 nM |
| Cc1nc(NC[C@H](C)CCN)nnc1-c1ccc(C(F)(F)F)cc1O [Example 136] | 61 nM |
| C[C@@]1(O)CCCC[C@H]1Nc1nnc(-c2ccc(OC(F)(F)F)cc2O)c(C2CC2)n1 [Example 124] | 37 nM |
| Cc1nc(N[C@@H]2COC[C@H]2O)nnc1-c1ccc(C(F)(F)F)cc1O [Example 16] | 88 nM |
| Cc1nc(N[C@@H]2CCN(CCO)C2)nnc1-c1ccc(C(F)(F)F)cc1O [Example 161, 2-(3-{[(3R)-1-(2-hydroxyethyl)pyrrolidin-3-yl]amino}-5-methyl-1,2,4-triazin-6-yl)-5-(trifluoromethyl)phenol] | 70 nM |
| Cc1nc(N[C@@H]2CCCN(C3COC3)C2)nnc1-c1ccc(C(F)(F)F)cc1O [Example 179] | 19 nM |
| Cc1nc(N[C@H]2CCC[C@@H](O)C2)nnc1-c1ccc(C(F)(F)F)cc1O [Example 167] | 580 nM |

| Structure (SMILES) | IC50 |
| --- | --- |
| Cc1nc(NC[C@H]2C[C@@H](N)C2)nnc1-c1ccc(C(F)(F)F)cc1O [Example 144] | 160 nM |
| Cc1nc(N[C@@H]2CCOC[C@@]2(C)O)nnc1-c1ccc(C(F)(F)F)cc1O [Example 80] | 12 nM |
| Cc1nc(N[C@H]2[C@@H]3COC[C@@H]32)nnc1-c1ccc(C(F)(F)F)cc1O [Example 24] | 40 nM |
| Cc1nc(N[C@@H]2CCC[C@H](O)C2)nnc1-c1ccc(Cl)cc1O [Example 82] | 30 nM |
| Cc1nc(Nc2cnn(CCO)c2)nnc1-c1ccc(C(F)(F)F)cc1O [Example 89] | 230 nM |
| Cc1nc(N[C@H]2C[C@@](C)(O)C2)nnc1-c1ccc(OC(F)(F)F)cc1O [Example 50] | 31 nM |
| Cc1nc(N[C@@H]2CCCC[C@H]2O)nnc1-c1ccc(F)cc1O [Example 53] | 63 nM |
| Cc1ccc(-c2nnc(N[C@@H]3CCCC[C@@]3(C)O)nc2C)c(O)c1 [Example 55] | 11 nM |
| Cc1nc(N[C@H]2C[C@](C)(O)C2)nnc1-c1ccc(C(F)(F)F)cc1O [Example 13] | 260 nM |
| Cc1nc(NCC2CC2)nnc1-c1ccc(C(F)(F)F)cc1O [Example 91] | 52 nM |
| Cc1nc(NC2(CCO)CC2)nnc1-c1ccc(C(F)(F)F)cc1O [Example 34] | 49 nM |
| Cc1nc(N[C@@H]2CCCC[C@@]2(C)O)nnc1-c1ccc(C(F)(F)F)cc1O [Example 47] | 8.8 nM |
| Cc1nc(NC[C@@H]2CCCN2)nnc1-c1ccc(C(F)(F)F)cc1O [Example 134] | 38 nM |
| Oc1cc(OC(F)(F)F)ccc1-c1nnc(N[C@@H]2CCCC[C@H]2O)nc1C1CC1 [Example 116] | 23 nM |
| Cc1nc(N[C@H]2CCCNC2=O)nnc1-c1ccc(C(F)(F)F)cc1O [Example 45] | 24 nM |
| Cc1nc(NC2CC(C)(O)C2)nnc1-c1ccc(C(F)(F)F)cc1O (centres unmarked) [Example 8] | 6.9 nM |
| Cc1nc(Nc2cc[nH]n2)nnc1-c1ccc(C(F)(F)F)cc1O [Example 150] | 6.8 nM |
| Cc1nc(N[C@@H]2CC[C@H](O)C2)nnc1-c1ccc(C(F)(F)F)cc1O [Example 35] | 50 nM |
| Cc1nc(N[C@H]2CC[C@]2(C)O)nnc1-c1ccc(C(F)(F)F)cc1O [Example 64] | 62 nM |
| Cc1ccc(-c2nnc(N[C@@H]3CCCC[C@H]3N)nc2C)c(O)c1 [Example 147] | 28 nM |
| CC(=O)N1CCC[C@H]1CNc1nnc(-c2ccc(C(F)(F)F)cc2O)c(C)n1 [Example 151, 1-((2S)-2-[({6-[2-hydroxy-4-(trifluoromethyl)phenyl]-5-methyl-1,2,4-triazin-3-yl}amino)methyl]pyrrolidin-1-yl)ethan-1-one] | 35 nM |

Same assay, conditions: Homo sapiens, THP-1, 2 h, read-out: IC50 (nM), IL-1β production

| Structure (SMILES) | IC50 |
| --- | --- |
| Cc1nc(N[C@@H]2CCCC[C@H]2O)nnc1-c1ccc(OC(F)F)cc1O [Example 186, 5-(difluoromethoxy)-2-(3-{[(1R,2R)-2-hydroxycyclohexyl]amino}-5-methyl-1,2,4-triazin-6-yl)phenol monohydrochloride] | 11 nM |

Same assay, conditions: PMA-differentiated THP-1 cells, LPS 50 ng/mL and ATP 5 mM, 2 hours, ELISA; dihydrochloride; read-out: IC50 (nM), IL-1β production

| IC50 | Structure (SMILES) |
| --- | --- |
| 21 nM | Cc1nc(N[C@@H]2CCCC[C@H]2N)nnc1-c1ccc(C(F)(F)F)cc1O [Example 188, 2-(3-{[(1R,2R)-2-aminocyclohexyl]amino}-5-methyl-1,2,4-triazin-6-yl)-5-(trifluoromethyl)phenol dihydrochloride] |
